Measurements taken from ChEMBL document CHEMBL1201862, “PubChem BioAssay data set” (2004).
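Method: 48-hour compound exposure of cells in 96-well plates, five concentrations, linear interpolation of endpoints. GI50 is the concentration that inhibits growth by half.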 Calls of active or inactive are those of the source. Cut-off read from the data, not from the text of the source: active = GI50 up to about 1.1 µM and inactive = higher.

Legend:
Experiment in all cases: NCI anticancer screen, dose series, 48 h
A549 = system: A549
CAKI-1 = system: CAKI-1
HCT-15 = system: HCT-15
HOP-62 = system: HOP-62
HOP-92 = system: HOP-92
HT-29 = system: HT-29
IGROV-1 = system: IGROV-1
M14 = system: M14
NCI-H226 = system: NCI-H226
NCI-H23 = system: NCI-H23
OVCAR-3 = system: OVCAR-3
OVCAR-8 = system: OVCAR-8
RXF 393 = system: RXF 393
SF-268 = system: SF-268
SN12C = system: SN12C
SNB-75 = system: SNB-75
SW-620 = system: SW-620
U-251 = system: U-251
UACC-62 = system: UACC-62
UO-31 = system: UO-31

Compound	GI50 (A549)	GI50 (CAKI-1)	GI50 (HCT-15) [µM]	GI50 (HOP-62)	GI50 (HOP-92)	GI50 (HT-29)	GI50 (IGROV-1)	GI50 (M14)	GI50 (NCI-H226)	GI50 (NCI-H23)	GI50 (OVCAR-3)	GI50 (OVCAR-8)	GI50 (RXF 393)	GI50 (SF-268)	GI50 (SN12C)	GI50 (SNB-75)	GI50 (SW-620)	GI50 (U-251)	GI50 (UACC-62)	GI50 (UO-31)
COc1ccc(N2NC(c3ccccc3)(c3ccccc3)C(C)C2=O)cc1 (centres undefined)	34.4 µM (inactive)	54.2 µM (inactive)	39.5	> 100 µM (inactive)	48.5 µM (inactive)	40 µM (inactive)	> 100 µM (inactive)	57.1 µM (inactive)	49.8 µM (inactive)	65.6 µM (inactive)	> 100 µM (inactive)	79.8 µM (inactive)	52.4 µM (inactive)	88.5 µM (inactive)	82.8 µM (inactive)	> 100 µM (inactive)	58.9 µM (inactive)	64.3 µM (inactive)	91.2 µM (inactive)	30.1 µM (inactive)
O=C(Nc1nnc(S)[nH]1)C(=O)C(c1cnc2ccc([N+](=O)[O-])cc2n1)[N+](=O)[O-] (centres undefined)	> 100 µM (inactive)	> 100 µM (inactive)	72.9	> 100 µM (inactive)	> 100 µM (inactive)	> 100 µM (inactive)	> 100 µM (inactive)	> 100 µM (inactive)	> 100 µM (inactive)	> 100 µM (inactive)	> 100 µM (inactive)	> 100 µM (inactive)	> 100 µM (inactive)	> 100 µM (inactive)	> 100 µM (inactive)	> 100 µM (inactive)	> 100 µM (inactive)	> 100 µM (inactive)	> 100 µM (inactive)	> 100 µM (inactive)
O=C1c2ccccc2C(=O)C1C(c1ccc([N+](=O)[O-])cc1)C1C(=O)c2ccccc2C1=O	> 100 µM (inactive)	28.8 µM (inactive)	63.1	34.8 µM (inactive)	36.2 µM (inactive)	> 100 µM (inactive)	–	55.7 µM (inactive)	59.7 µM (inactive)	34.9 µM (inactive)	18.5 µM (inactive)	25.5 µM (inactive)	14.3 µM (inactive)	24.9 µM (inactive)	36.6 µM (inactive)	38.6 µM (inactive)	17.9 µM (inactive)	30.3 µM (inactive)	32.6 µM (inactive)	44.7 µM (inactive)
COc1ccc(C2SC(=N)Nc3c2c(C)nn3C(=O)c2ccccc2O)cc1 (centres undefined)	0.412 µM (active)	0.667 µM (active)	4.58	2.77 µM (inactive)	> 10 µM (inactive)	5.11 µM (inactive)	0.497 µM (active)	1.67 µM (inactive)	0.904 µM (active)	0.933 µM (active)	1.96 µM (inactive)	0.998 µM (active)	0.532 µM (active)	0.885 µM (active)	2.44 µM (inactive)	0.308 µM (active)	5.47 µM (inactive)	0.9 µM (active)	0.583 µM (active)	–
C[n+]1cccc2c(=O)c3ccccc3oc21	> 100 µM (inactive)	> 100 µM (inactive)	> 100	> 100 µM (inactive)	> 100 µM (inactive)	> 100 µM (inactive)	> 100 µM (inactive)	> 100 µM (inactive)	> 100 µM (inactive)	> 100 µM (inactive)	> 100 µM (inactive)	> 100 µM (inactive)	> 100 µM (inactive)	> 100 µM (inactive)	> 100 µM (inactive)	> 100 µM (inactive)	> 100 µM (inactive)	> 100 µM (inactive)	> 100 µM (inactive)	69.5 µM (inactive)
OC(NN=C1CCCC1)(C(F)(F)Cl)C(F)(F)Cl	> 10 µM (inactive)	> 10 µM (inactive)	> 10	> 10 µM (inactive)	> 10 µM (inactive)	> 10 µM (inactive)	> 10 µM (inactive)	> 10 µM (inactive)	> 10 µM (inactive)	> 10 µM (inactive)	> 10 µM (inactive)	> 10 µM (inactive)	> 10 µM (inactive)	> 10 µM (inactive)	> 10 µM (inactive)	> 10 µM (inactive)	> 10 µM (inactive)	> 10 µM (inactive)	> 10 µM (inactive)	–
CCCCCCCCCCNC(=O)CCC(NC(=O)c1ccc(N(C)Cc2cnc3nc(N)nc(N)c3n2)cc1)C(=O)NCCCCCCCCCC (centres undefined)	28.6 µM (inactive)	> 100 µM (inactive)	17.9	31.8 µM (inactive)	9.1 µM (inactive)	10.5 µM (inactive)	6.04 µM (inactive)	8.97 µM (inactive)	18.8 µM (inactive)	14.7 µM (inactive)	10 µM (inactive)	8.45 µM (inactive)	5.53 µM (inactive)	9.62 µM (inactive)	8.07 µM (inactive)	11.9 µM (inactive)	3.13 µM (inactive)	4.2 µM (inactive)	18.9 µM (inactive)	74.3 µM (inactive)
CCC(/C(=N/NC(=O)C[N+](C)(C)C)c1ccccc1)C1OC(=O)c2ccccc21 (centres undefined)	> 100 µM (inactive)	> 100 µM (inactive)	> 100	> 100 µM (inactive)	> 100 µM (inactive)	> 100 µM (inactive)	> 100 µM (inactive)	> 100 µM (inactive)	> 100 µM (inactive)	> 100 µM (inactive)	> 100 µM (inactive)	> 100 µM (inactive)	> 100 µM (inactive)	> 100 µM (inactive)	> 100 µM (inactive)	> 100 µM (inactive)	> 100 µM (inactive)	> 100 µM (inactive)	> 100 µM (inactive)	> 100 µM (inactive)
CCOC(=O)c1cn(-c2ccc(Cl)cc2)c(=O)n2c1nc1ccccc12	> 100 µM (inactive)	> 100 µM (inactive)	> 100	> 100 µM (inactive)	> 100 µM (inactive)	88.3 µM (inactive)	> 100 µM (inactive)	> 100 µM (inactive)	> 100 µM (inactive)	> 100 µM (inactive)	> 100 µM (inactive)	> 100 µM (inactive)	> 100 µM (inactive)	–	> 100 µM (inactive)	> 100 µM (inactive)	> 100 µM (inactive)	> 100 µM (inactive)	> 100 µM (inactive)	> 100 µM (inactive)
CCOc1ccc(/N=N/S(=O)(=O)O)cc1	> 100 µM (inactive)	> 100 µM (inactive)	> 100	> 100 µM (inactive)	> 100 µM (inactive)	> 100 µM (inactive)	> 100 µM (inactive)	> 100 µM (inactive)	> 100 µM (inactive)	> 100 µM (inactive)	> 100 µM (inactive)	> 100 µM (inactive)	> 100 µM (inactive)	> 100 µM (inactive)	> 100 µM (inactive)	> 100 µM (inactive)	> 100 µM (inactive)	> 100 µM (inactive)	> 100 µM (inactive)	> 100 µM (inactive)
Cc1c(C(=O)/C=C/c2ccc(Cl)cc2)[n+]([O-])c2ccccc2[n+]1[O-]	12.4 µM (inactive)	9.2 µM (inactive)	9.23	26.5 µM (inactive)	15 µM (inactive)	12.9 µM (inactive)	11.8 µM (inactive)	15.6 µM (inactive)	16.4 µM (inactive)	10.4 µM (inactive)	12.5 µM (inactive)	11.2 µM (inactive)	4.18 µM (inactive)	14.7 µM (inactive)	7.1 µM (inactive)	15.3 µM (inactive)	8.69 µM (inactive)	12.9 µM (inactive)	12.6 µM (inactive)	16.1 µM (inactive)
CC(=O)OC(/C=C1/C=CC(=O)O1)COC(=O)c1ccccc1 (centres undefined) [ACETYLMELODORINOL]	> 31.2 µM (inactive)	> 31.2 µM (inactive)	–	> 31.2 µM (inactive)	> 31.2 µM (inactive)	> 31.2 µM (inactive)	> 31.2 µM (inactive)	> 31.2 µM (inactive)	> 31.2 µM (inactive)	> 31.2 µM (inactive)	> 31.2 µM (inactive)	> 31.2 µM (inactive)	> 31.2 µM (inactive)	> 31.2 µM (inactive)	> 31.2 µM (inactive)	> 31.2 µM (inactive)	> 31.2 µM (inactive)	> 31.2 µM (inactive)	> 31.2 µM (inactive)	> 31.2 µM (inactive)
COC1=CC(=O)c2c(c(O)c3oc4cc(OC)cc(C)c4c(=O)c3c2O)C1=O [BIKAVERIN]	1.6 µM (inactive)	0.195 µM (active)	1.21	1.1 µM (active)	0.578 µM (active)	19.4 µM (inactive)	1.08 µM (active)	–	0.159 µM (active)	1.07 µM (active)	0.809 µM (active)	0.178 µM (active)	0.912 µM (active)	4.46 µM (inactive)	1.56 µM (inactive)	1.21 µM (inactive)	1.6 µM (inactive)	0.879 µM (active)	1.24 µM (inactive)	1.36 µM (inactive)
